This experiment concerns the target T1, CkGE15A (Caldicellulosiruptor acetigenus, UniProt E4S6E9).
T1 construct: gene Calkr_2245; CE15 glucuronoyl esterase domain only, cut from the 191-kDa multidomain protein (CBM22-CBM22-GH10-CBM9-CBM9-CBM9-CE15-cadherin-SLH-SLH); modified pET-28a with TEV site, E. coli BL21, Ni IMAC
T1 sequence (E4S6E9 1270-1690 limits assumed): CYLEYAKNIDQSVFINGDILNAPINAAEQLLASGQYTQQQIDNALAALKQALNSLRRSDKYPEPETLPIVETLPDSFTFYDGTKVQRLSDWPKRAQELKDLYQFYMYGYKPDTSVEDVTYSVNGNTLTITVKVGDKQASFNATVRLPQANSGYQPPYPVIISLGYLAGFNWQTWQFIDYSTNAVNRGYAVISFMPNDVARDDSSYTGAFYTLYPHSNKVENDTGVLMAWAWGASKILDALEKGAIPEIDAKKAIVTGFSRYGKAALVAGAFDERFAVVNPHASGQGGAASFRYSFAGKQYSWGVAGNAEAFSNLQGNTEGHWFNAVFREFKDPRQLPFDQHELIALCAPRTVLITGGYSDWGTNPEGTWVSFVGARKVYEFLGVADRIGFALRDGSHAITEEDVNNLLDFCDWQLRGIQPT
Put plainly: continuous coupled assay of uronic acid release (K-URONIC kit, NADH at […] nm). The format is biochemical. Conditions: 22 °C; pH 7.5; printed as 'Cannot be saturated up to 40 mM'.

SMILES strings stand for the structures.

For orientation: Km means the substrate concentration at which the rate is half of its maximum. On to `COC(=O)[C@H]1OC(O)[C@H](O)[C@@H](O)[C@@H]1O` (stereo partly drawn) [MeGlcA, Methyl-D-glucuronoate], for which the Km is over 40 mM. As for `C=CCOC(=O)[C@H]1OC(O)[C@H](O)[C@@H](O)[C@@H]1O` (stereo partly drawn) [AllGlcA, Allyl-D-glucuronoate], the figure is over 40 mM.

(Values after PMC7151638, “Investigation of a thermostable multi-domain xylanase-glucuronoyl esterase enzyme from Caldicellulosiruptor kristjanssonii incorporating multiple carbohydrate-binding modules” (Biotechnology for Biofuels, 2020).)
